Tests used:
HCT-116 cells = assay: MTT cell viability assay, HCT116; type: cell-based; conditions: Homo sapiens; HCT-116, MTT, 24 h
Procedure: The human colon cancer cell lines COLO 205, HCT116 and HT29 were purchased from the American Type Culture Collection (Rockville, Md.). Cell lines were grown in RPMI1640 supplemented with 10% heat inactivated fetal bovine serum (GIBCO BRL, Grand Island, N.Y.), 100 units/mL of penicillin, 100 μg/mL of streptomycin), 2 mM L-glutamine (GIBCO BRL, Grand Island, N.Y.), and were kept at 37° C. in a humidified 5% CO2 incubator. Pterostilbene and 3-HPT were dissolved in dimethyl sulfoxide (DMSO, as final concentration of 0.05%). Cells were treated with 0.05% DMSO as vehicle control.
(§1) Cell viability was assayed by 3(4,5-dimethylthiazol-2-yl)-2,5-diphenyltetrazolium bromide (MTT). Briefly. COLO 205, HCT116 and HT29 cells were plated at a density of 2×10^2 cells/mL into 96 well plates. After overnight growth, cells were treated with a series of concentrations of pterostilbene or 3-hydroxypterostilbene for 24 h. The final concentrations of DMSO in the culture medium were <0.05%. At the end of treatment, 0.2% MTT was added and cells were incubated for a further 4 h. Cell viability was determined by scanning with an ELISA reader with a 570 nm filter.

[1] = tested on: PC-3 (Human prostate cancer cell line); assay: MTT cell viability assay, PC-3; type: cell-based
Procedure: as §1
The MTT reaction explained in Para 0040 was also used to assess the cell viability of human prostate cancer cells (PC-3) in the presence of pterostilbene and 3-hydroxypterostilbene. The results (FIG. 1) are represented in Table II.

[2] = tested on: PARP, DFF-45, pro-caspase 8 and pro-caspase 9 in COLO 205 cells; assay: Western blotting of PARP, DFF-45, pro-caspase 8 and pro-caspase 9 cleavage; type: cell-based, human; conditions: COLO 205 cell lysates
Procedure: Western blotting analysis was performed as follows. The total proteins of COLO 205 cells were extracted via addition of gold lysis buffer (50 mM TrisHCl, pH 7.4; 1 mM NaF; 150 mM NaCl; 1 mM EGTA; 1 mM phenylmethanesulfonyl fluoride; 1% NP40; and 10 μg/mL leupeptin) to the cell pellets on ice for 30 min, followed by centrifugation at 10,000×g for 30 min at 4° C. The total proteins were measured by BioRad Protein Assay (BioRad Laboratories, Munich, Germany). The samples (50 μg of protein) were mixed with 5× sample buffer containing 0.3 M TrisHCl (pH 6.8), 25% 2mercaptoethanol, 12% sodium dodecyl sulfate (SDS), 25 mM EDTA, 20% glycerol, and 0.1% bromophenol blue. The mixtures were boiled at 100° C. for 5 min and were subjected to 10% SDS polyacrylamide minigels at a constant current of 20 mA. Electrophoresis was then carried out on SDSpolyacrylaniide gels. Proteins on the gel were electrotransferred onto an immobile membrane (PVDF; Millipore Corp., Bedford, Mass.) with transfer buffer composed of 25 mM TrisHCl (pH8.9), 192 mM glycine, and 20% methanol. The membranes were blocked with blocking solution containing 20 mM TrisHCl, and then immunoblotted with different primary antibodies and β actin. The blots were rinsed three times with PBST buffer (0.2% Tween 20 in 1× PBS buffer) for 10 min each. Then blots were incubated with 1:5000 dilution of the horseradish peroxidase (HRP) conjugated secondary antibody (Zymed Laboratories, San Francisco, Calif.) and then washed again three times with PBST buffer. The transferred proteins were visualized with an enhanced chemi-luminescence detection kit (ECL Amersham Pharmacia Biotech, Buckinghamshire, UK). The densities of the bands were quantified with a computer densitometer (AlphaImager™ 2200 System Alpha densitometer. Innotech Corporation, San Leandro, Calif.). […] The pro-caspase 8 cleavage by 3-HPT was moderate (FIG. 12).

COLO 205 cells [3] = assay: ROS production by DCFHDA flow cytometry; type: cell-based, human; conditions: COLO 205, 50 μM, 15 min; from 114
Procedure: For mitochondrial membrane potential and ROS production, COLO 205 cells were treated as described under Example III for 15 min, and then DiOC6 [3,3′-dihexyloxacarbocyanine iodide] (40 nM) or DCFHDA [2′,7′-dichlorodihydrofluorescein diacetate] (20 μM) was added to the medium for a further 30 min at 37° C. After washing with PBS, the fluorescence intensity was determined by FAC Scan cytometry. The DiOC6 fluorescence intensity shifted to the left from 224 to 117 and 75 in pterostilbene and 3-HPT induced apoptotic COLO 205 cells, respectively. […] The role of ROS in the induction of apoptosis is well recognized. […] The imbalance of ROS concentrations could play an important role as an early mediator in 3-HPT induced apoptosis.

COLO 205 cells [4] = assay: Autophagy (acidic vesicular organelles) by acridine orange staining; type: cell-based, human; conditions: 24 h
Procedure: Autophagy induction in COLO 205 cells treated with 3-HPT and pterostilbene was detected by Acridine Orange (AO) staining. After 24 h treatment, COLO 205 cells were washed with phosphate buffered saline (PBS), suspended in PBS and stained with 1 μg/mL AO of 20 min. Photographs were obtained with a fluorescence microscope (Axioscop, Carl Zeiss, Thomwood, N.Y.) equipped with a mercury 100 W lamp, 490 nm Bandpass blue excitation filters, a 500 nm dichroic mirror and a 515 nm long pass barrier filter. For quantification of AVOs by flow cytometry, cells were treated as described under EXAMPLE II and stained with AO for 15 min and were analyzed by FACScan laser flow cytometer and CellQuest software.

COc1cc(/C=C/c2ccc(O)c(O)c2)cc(OC)c1 [3-hydroxypterostilbene, 3,4-dihydroxy-3′,5′-dimethoxy-trans-stilbene]
IC50 (HCT-116 cells): 40.2 ± 0.6 µM | IC50 ([1]; Homo sapiens, PC-3, MTT): 5 µM | growth inhibitory effect ([1]; PC-3 human prostate cancer cells): strong growth inhibitory effect | DFF45 protein degradation [2]: induced DFF45 protein degradation | pro-caspase 8 cleavage [2]: moderate | pro-caspase 9 cleavage [2]: much better than that exemplified by pterostilbene | degradation of PARP ([2]; compared with pterostilbene): markedly caused the degradation of 116 kDa PARP into 85 kDa fragments | mean DCFHDA fluorescence intensity (ROS) (COLO 205 cells [3]): 38 | appearance of AVO (fluorescence microscopy) (COLO 205 cells [4]; COLO 205, 50 μM): marked appearance of AVO than pterostilbene | red fluorescence of cells with AVOs (flow cytometry) (COLO 205 cells [4]; COLO 205, 25 and 50 μM): significantly increased after treatment with 3-HPT in a dose dependent manner

Reference: patent US20160058712A1, “3-HYDROXYPTEROSTILBENE AND THERAPEUTIC APPLICATIONS THEREOF” (priority 2014, published 2016)
